We go through 14 compounds from article PMC9246256, “Structure-based optimization of type III indoleamine 2,3-dioxygenase 1 (IDO1) inhibitors” (Journal of Enzyme Inhibition and Medicinal Chemistry, 2022).

Where “and” joins values, the source holds several entries; their conditions need not be identical. Equal entries are not always repeated. Where two headings read alike, the source gives them in different places. Bounds are passed on as bounds.

In series [1] the test system is HEK 293 T cells. The note with it: previously determined, 200 µM, cited from earlier work.
In series [2] the test system is TDO. Also on record: method as in PMID 22616902. The note with it: undetectable activity; cited from earlier work.
Series [3] has as its target T1, hIDO1 (Homo sapiens, UniProt P14902).
T1 construct: The full ORF of hIDO1 was cloned into the mammalian expression vector pcDNA6/myc-His; myc-His (vector-encoded); host or cells: HEK 293 T
The note with it: previously determined, 200 µM, cited from earlier work.

Series [4] relates to IDO1. The note with it: cited from earlier work.
The target in series [5] is T2, purified recombinant IDO1 (Homo sapiens, UniProt P14902).
T2 construct: Full-length human IDO1 gene was cloned into the pET-28a vector; inferred from pET-28a vector and HisTrap purification; made in house; host or cells: E. coli Rosetta (DE3)
The series can be described thus: Enzymatic IDO1 inhibition assay (ascorbate/methylene blue reduction system, HPLC detection of kynurenine). Format: biochemical. The note with it: for IC50: enzymatic; for LE [kcal/mol/HA]: ligand efficiency, LE = -RT log(IC50)/number of heavy atoms, from enzymatic IC50.
Description: Enzymatic IC50 values were measured with the ascorbate/methylene blue reduction system[85] in presence of a non-ionic detergent to reduce compound aggregation as described before[28]. Kynurenine and L-Trp concentrations were determined by HPLC through UV detection.
Full-length human IDO1 gene was cloned into the pET-28a vector and expressed in E. coli Rosetta (DE3) cells. […] The culture was harvested and frozen at −80 °C until further use. The frozen cells were lysed by sonication in 20 mM Tris pH 7, 400 mM NaCl, 1 mM MgCl2, 20 mM imidazole, 1 mM DTT, 0.5 mg/mL Lysozyme and Protease inhibitor. After centrifugation, the supernatant was loaded into a HisTrap HP column pre-equilibrated with buffer containing 20 mM Tris pH 7, 500 mM NaCl and 20 mM imidazole, and eluted with the same buffer containing 500 mM imidazole. Fractions containing IDO1 were pooled, concentrated, and injected on a size exclusion chromatography column (HiLoad Superdex S75 16/60) to increase purity. hIDO1 fractions were concentrated to 20 mg/mL in 20 mM Tris pH 7 and 150 mM NaCl.
The enzymatic inhibition assays were performed as described by Takikawa et al.[130] with some modifications. Briefly, the reaction mixture (100 µL) contained potassium phosphate buffer (100 mM, pH 6.5) ascorbic acid (20 mM), catalase (400 units/mL), methylene blue (10 µM), purified recombinant IDO1 (2.5 ng/µL), L-Trp (100 µM), Triton X-100 (0.01%) and DMSO (5 µL). The inhibitors were serially diluted 3-fold for at least 8 different concentrations. After incubation at room temperature for 20 min, the reaction was stopped in its linear phase by addition of trichloroacetic acid solution (40 mL, 30% w/v), and the samples were incubated at 50 °C for 30 min. After centrifugation, 80 µl of supernatant from each well were used for HPLC analysis. The mobile phase for HPLC analysis was composed of 50% (v/v) of methanol and 50% of sodium citrate buffer (40 mM, pH 2.4) containing 400 µM sodium dodecyl sulphate. […] All assays were carried out in duplicates. The activity (Act) of each compound was calculated as Act = RT log(IC50) in analogy to the relation between the binding free energy and the Ki value. The ligand efficiency (LE) was calculated as LE = −Act/NHA, where NHA is the number of non-hydrogen atoms (heavy atoms) in the compound.

Series [6] has as its system murine IDO2. Details: method as in PMID 27469130. The note with it: murine IDO2, cellular; cited from earlier work.
Series [7] deals with T1, hIDO1. The series can be described thus: Cellular hIDO1 inhibition (kynurenine production) in transiently transfected HEK 293 T cells. In kind it is cell-based.
Series [8] deals with HEK 293 T cells. The series can be described thus: Cell viability / cellular toxicity (DAPI staining, cytometry). The note with it: 7 h. Format: cell-based, human.
A short description of series [9]: Compound solubility (qualitative remarks). In kind it is physicochemical.
Series [10] addresses T1, hIDO1. The series can be described thus: Cellular hIDO1 inhibition (kynurenine production) in transiently transfected HEK 293 T cells. Format: cell-based. The note with it: HEK 293 T cells transfected with hIDO1; read-out: Cell. IC50 [ μ M] (SD).
[11] abbreviates: ref 1 of Supporting Information (Röhrig et al. 2021).
[12] abbreviates: L-Trp 100 µM, 0.01% Triton X-100, 5% DMSO, 20 min at room temperature, pH 6.5, duplicates, read-out: IC50 [ μ M] (SD).
Where [13] appears, read: values of Panda and co-workers, not reproduced here, read-out: published IC50 values.

T2 sequence (P14902 whole entry): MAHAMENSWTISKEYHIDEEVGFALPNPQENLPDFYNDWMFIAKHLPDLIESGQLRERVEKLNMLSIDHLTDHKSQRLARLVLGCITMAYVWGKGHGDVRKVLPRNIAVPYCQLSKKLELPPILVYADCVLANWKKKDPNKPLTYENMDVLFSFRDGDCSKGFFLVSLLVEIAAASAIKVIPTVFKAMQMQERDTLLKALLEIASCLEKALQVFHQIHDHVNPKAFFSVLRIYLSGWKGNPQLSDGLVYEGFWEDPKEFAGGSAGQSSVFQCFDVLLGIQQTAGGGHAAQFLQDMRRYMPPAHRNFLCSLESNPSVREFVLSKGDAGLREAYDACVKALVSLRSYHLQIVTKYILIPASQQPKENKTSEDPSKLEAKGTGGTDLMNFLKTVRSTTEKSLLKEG
T1 sequence (P14902 whole entry): as above

Consider `Oc1ccc(Cl)cc1-c1cnn[nH]1` [Compound 9], for which the “Tox. [%]” value in series [1] (setting [11]) is listed as 4%. Besides, the “activities on TDO” value in [2] is greater than 100 µM. For the same compound, the “Inh. [%]” value in series [3] (setting [11]) was 100%.
The term IC50 denotes the concentration that inhibits the measured activity by half. Take `Clc1ccc(Nc2cnn[nH]2)cc1` [Compound 10, reference compound]: the IC50 in series [4] (read-out: IC50 value in the original publication) was 11.3 µM; in series [5] (setting [12]), 56 µM. The “LE [kcal/mol/HA]” value in series [5] turned out to be 0.44 kcal/mol/HA.
Regarding `Clc1cccc(-c2cnn[nH]2)c1/C=C/C1CCCCC1` [Compound 42], the “Tox. [%]” value in [1] (ref 3 of Supporting Information (= main text ref 62)) is reported as 5%. Besides, the “Inh. [%]” value in [3] (ref 3 of Supporting Information (Röhrig et al. 2016)) is recorded as 56%. The IC50 was 260 µM in series [5] (setting [12]) and 110 µM in series [6]. Also, the “LE [kcal/mol/HA]” value in series [5] was determined as 0.24 kcal/mol/HA.
One may read the inhibition as the change of the read-out against control, counted positive when it falls. A low value points to little suppression. One may read the melting point as the temperature, or range, at which the solid turns liquid. Turning to `Clc1cc(Cl)c(-c2c[nH]nn2)cc1Cl` [Compound 52, 4–(2,4,5-Trichlorophenyl)-1,2,3-triazole], the melting point lay within 190 to 192 °C. In [7], this compound showed an inhibition at 50 µM of 44%. Besides, in [8] (compound 50 µM), the “Tox. [%]” value is on record as 7.9 (1) %. Further, in series [5] (setting [12]), the IC50 is 33 µM. In addition, the “LE [kcal/mol/HA]” value in series [5] was 0.44 kcal/mol/HA. Further, in series [9], the “solubility (in words)” value was “less soluble”.
In the case of `Clc1cccc(-c2nn[nH]c2-c2cccc(Cl)c2)c1` [Compound 64, 4,5-Bis(3-chlorophenyl)-1,2,3-triazole, reference compound], the IC50 in [4] (setting [13]) is 2.51 µM; in series [5] (setting [12]) it was greater than 50 µM.
For `CCOC(=O)c1[nH]nnc1-c1ccc(Cl)cc1` [Compound 65, reference compound], the IC50 in [4] (setting [13]) is 0.39 µM; in [5] (setting [12]) it was greater than 1000 µM.
As to `NC(=O)c1[nH]nnc1-c1ccc(Cl)cc1` [Compound 66, 4–(4-Chlorophenyl)-1H-1,2,3-triazole-5-carboxamide, reference compound], the IC50 was 0.62 µM in series [4] (setting [13]) and 800 µM in series [5] (setting [12]). Besides, in series [5], the “LE [kcal/mol/HA]” value turned out to be 0.28 kcal/mol/HA.
`Nc1c(F)cccc1-c1nc[nH]n1` [Compound 140, 2-Fluoro-6-(1H-1,2,4-triazol-3-yl)aniline] had an inhibition at 200 µM in series [7] of 100%. Further, the IC50 in series [10] was 1.2 µM; in series [5] (setting [12]), 0.81 µM. The “Tox. [%]” value in [8] (compound 200 µM) was 17 (3) %. In series [5], the “LE [kcal/mol/HA]” value came out at 0.64 kcal/mol/HA.
The corresponding values for `Nc1ccc(F)cc1-c1nc[nH]n1` [Compound 143, 4-Fluoro-2-(1H-1,2,4-triazol-3-yl)aniline] are 86%, 0.25 µM, 0.15 µM, 18 (0.5) % and 0.72 kcal/mol/HA.
Compound `Nc1cc(F)c(Br)cc1-c1nc[nH]n1` [Compound 144, 4-Bromo-5-fluoro-2-(1H-1,2,4-triazol-3-yl)aniline] displayed a melting point of 243 to 246 °C. In [7], this compound had an inhibition at 200 µM of 100%. Also, the IC50 in series [10] is 0.034 µM. For the same compound, in series [8] (compound 200 µM), the “Tox. [%]” value is 17 (2) %. For the same compound, in [5] (setting [12]), the IC50 was 0.034 µM. Moreover, the IC50 in series [5] (read-out: enzymatic IC50) turned out to be 0.034 µM. For the same compound, the “LE [kcal/mol/HA]” value in series [5] is 0.73 kcal/mol/HA.
For `CCCC(=O)Nc1ccc(Cl)cc1-c1nc[nH]n1` [Compound 148, N-(4-Chloro-2-(1H-1,2,4-triazol-3-yl)phenyl)butyramide], the melting point lay in the range of 156 to 158 °C. Also, in series [7], the inhibition at 50 µM was 93%. The “Tox. [%]” value in series [8] (compound 50 µM) is given as 17 (2) %. Further, the IC50 in series [5] (setting [12]) was 24 µM and 25 µM. Also, the “LE [kcal/mol/HA]” value in series [5] amounted to 0.35 kcal/mol/HA. Further, the “solubility (in words)” value in series [9] is “less soluble”.
`O=C(Nc1ccc(Cl)cc1-c1nc[nH]n1)C1CC1` [Compound 149, N-(4-Chloro-2-(1H-1,2,4-triazol-3-yl)phenyl)cyclopropanecarboxamide] had a melting point of 183 to 186 °C. In series [7], this compound displayed an inhibition at 50 µM of 100%. The “Tox. [%]” value in series [8] (compound 50 µM) is recorded as 19 (2) %. In addition, the IC50 in [5] (setting [12]) worked out at 0.49 µM. Further, the “LE [kcal/mol/HA]” value in [5] is on record as 0.48 kcal/mol/HA. Further, in series [9], the “solubility (in words)” value is “less soluble”.
The compound `O=C(Nc1ccc(Cl)cc1-c1nc[nH]n1)C1CCC1` [Compound 150, N-(4-Chloro-2-(1H-1,2,4-triazol-3-yl)phenyl)cyclobutanecarboxamide] gave a melting point of 201 to 203 °C. The IC50 in [5] (setting [12]) was greater than 100 µM. The “solubility (in words)” value in [9] was “strongly reduced solubilities”.
The compound `O=C(Nc1ccc(Cl)cc1-c1nc[nH]n1)C1CCCC1` [Compound 151, N-(4-Chloro-2-(1H-1,2,4-triazol-3-yl)phenyl)cyclopentanecarboxamide] had a melting point of 197 to 199 °C. The IC50 in [5] (setting [12]) was greater than 100 µM. In addition, the “solubility (in words)” value in series [9] is “strongly reduced solubilities”.
